Test system: HA-specific peptide (9-mer)
Conditions: mouse, in vivo

## CCCCCCCCCCCCCCCCCCCCCCCCCC(=O)N[C@@H](CO[C@H]1O[C@H](CO)[C@H](O)[C@H](O)[C@H]1O)[C@H](O)[C@H](O)CCCCCCCCCCCCCC [C1, α-Galactosyl ceramide, reference compound]
  IFN-γ secreting cells: increased
